Here are results for 46 compounds from paper PMC10583863 (European journal of medicinal chemistry, 2022).

In brackets after ≈: the same amount, converted by molar mass. Where two headings read alike, the source gives them in different places. Bounds are passed on as bounds.

Series [1] deals with M. marinum infected zebrafish larvae. As to the kind of experiment: Zebrafish larvae model of M. marinum infection. The following applies: caudal vein microinjection, ca. 6–8 ng, by tendency. It is filed as in vivo.
Series [2] deals with M. tuberculosis H37Rv. As to the kind of experiment: microbe, parasite or virus in culture. Format: cell-based, Mycobacterium tuberculosis. The settings on record: for MIC90: Mycobacterium tuberculosis, H37RV, read-out: MIC90 MtbH37Rv.
The conditions of series [3]: in words; cited from earlier work.
For series [4] the following is noted: introduction, earlier work; cited from earlier work.
The subject of series [5] is M. tuberculosis H37Rv. The following applies: activity already reported, cited from earlier work.
In another series the test system is M. abscessus Bamboo. As to the kind of experiment: MIC by broth microdilution, NTM. The following applies: especially against M. abscessus Bamboo; weak.
Series [6] can be described thus: Metabolic stability in human liver microsomes. Format: in vitro ADME. The following applies: 60 min incubation. (In general: Liver microsomes are vesicles of endoplasmic reticulum, rich in cytochrome P450 enzymes.)
A further series has as its system Ty1 (Rv3405c, c190t). As to the kind of experiment: MIC by micro-broth dilution method, Mtb panel. It is filed as cell-based. The settings on record: Mycobacterium tuberculosis. In general terms: Broth dilution looks for growth in wells or tubes with falling amounts of substance.
Another series deals with H37Rv. As to the kind of experiment: MIC by micro-broth dilution method, Mtb panel. The following applies: strain H37Rv. Format: cell-based, Mycobacterium tuberculosis.
The test system of a further series is 81.10 (ethA, Δ1109–37). Format: cell-based. The following applies: strain 81.10 (ethA, Δ1109–37).

On to `Cc1ccc(Nc2nc(-c3cc(C(=O)Nc4ccccc4)no3)cs2)cc1` [Compound 3], for which the granuloma formation entry in [1] is “granuloma formation was slightly less pronounced than in the untreated control group”. Further, the MIC90 in the series on M. tuberculosis H37Rv [2] was 2.7 µM. Moreover, the reactivity to glutathione entry in series [3] is reported as “ruling out the possibility of indiscriminate reactivity toward biological nucleophiles”.
As to `Cc1ccc(Nc2nc(-c3cc(C(=O)Nc4ccccn4)no3)cs2)cc1` [Compound 4], in the series with M. tuberculosis H37Rv [2], the MIC90 stood at 1.3 µM. Also, the reactivity to glutathione entry in series [3] is “ruling out the possibility of indiscriminate reactivity toward biological nucleophiles”. Moreover, in series [4], the “half-life in human liver microsomes (HLM)” value was 35 ± 0.8 min.
`Cc1ccc(Nc2nc(-c3cc(C(=O)Nc4ccc(F)cc4)no3)cs2)cc1` [Compound 9a]: the MIC90 with M. tuberculosis H37Rv [2] came to 2.5 µM.
As to `Cc1ccc(Nc2nc(-c3cc(C(=O)Nc4cccc(F)c4)no3)cs2)cc1` [Compound 10a], the MIC90 with M. tuberculosis H37Rv [2] was found to be 6.3 µM.
For the compound `Cc1ccc(Nc2nc(-c3cc(C(=O)Nc4ccccc4F)no3)cs2)cc1` [Compound 11a], the MIC90 in the series on M. tuberculosis H37Rv [2] is 2.5 µM.
For `Cc1ccc(NC(=O)c2cc(-c3csc(Nc4ccc(C)cc4)n3)on2)cc1` [Compound 14a], the MIC90 in the series on M. tuberculosis H37Rv [2] turned out to be 2.6 µM.
As for `Cc1ccc(Nc2nc(-c3cc(C(=O)Nc4cccc(C)c4)no3)cs2)cc1` [Compound 15a], the MIC90 with M. tuberculosis H37Rv [2] amounted to 1.3 µM.
On to `Cc1ccc(Nc2nc(-c3cc(C(=O)Nc4ccccc4C)no3)cs2)cc1` [Compound 16a], for which the MIC90 in the series with M. tuberculosis H37Rv [2] was determined as 2.5 µM.
Still for that read-out and setting: the figure for `Cc1ccc(Nc2nc(-c3cc(C(=O)Nc4ccc(O)cc4)no3)cs2)cc1` [Compound 20a] is 1.3 µM; for `Cc1ccc(Nc2nc(-c3cc(C(=O)Nc4ccc(O)cc4)no3)cs2)cc1O` [Compound 20e] it is 12.2 µM; for `Cc1ccc(Nc2nc(-c3cc(C(=O)Nc4cccc(O)c4)no3)cs2)cc1` [Compound 21a] it is 1.3 µM.
`Cc1ccc(Nc2nc(-c3cc(C(=O)Nc4ccccc4O)no3)cs2)cc1` [Compound 22a]: in the series on M. tuberculosis H37Rv [2], the MIC90 came out at 1.3 µM.
On the same count and under the same terms, the figure for `Cc1ccc(Nc2nc(-c3cc(C(=O)Nc4ccncc4)no3)cs2)cc1` [Compound 23a] is 2.6 µM; for `Cc1ccc(Nc2nc(-c3cc(C(=O)Nc4cccnc4)no3)cs2)cc1` [Compound 24a] it is 26 µM.
As to `Cc1ccc(Nc2nc(-c3cc(C(=O)Nc4cc(C)ccn4)no3)cs2)cc1` [Compound 27a], the MIC90 with M. tuberculosis H37Rv [2] stood at 2.6 µM.
For `Cc1ccc(Nc2nc(-c3cc(C(=O)Nc4ccsc4)no3)cs2)cc1` [Compound 32a], the MIC90 with M. tuberculosis H37Rv [2] was 2.6 µM.
As to `O=C(Nc1ccccc1)c1cc(-c2csc(Nc3cc(Cl)cc(Cl)c3)n2)on1` [Compound 35b], the “MIC90 MtbH37Rv” value in the series on M. tuberculosis H37Rv [5] is more than 20 µg/mL.
Regarding `Cc1cc(C)cc(Nc2nc(-c3cc(C(=O)Nc4ccccc4)no3)cs2)c1` [Compound 35d], the MIC90 in the series on M. tuberculosis H37Rv [2] worked out at 2.5 µM.
As for `O=C(Nc1ccccn1)c1cc(-c2csc(Nc3cc(Cl)cc(Cl)c3)n2)on1` [Compound 36b], in the series with M. tuberculosis H37Rv [5], the “MIC90 MtbH37Rv” value is more than 20 µg/mL.
Consider `Cc1ccc(Nc2nc(-c3cc(C(=O)Nc4ccccc4)no3)cs2)cc1O` [Compound 42e], for which, in the series with M. tuberculosis H37Rv [2], the “antitubercular whole cell activity in words” value is “retained a certain activity” and the MIC90 is 6.3 µM.
With `O=C(Nc1ccccc1)c1cc(-c2csc(Nc3ccccc3)n2)on1` [Compound 42g], the MIC90 with M. tuberculosis H37Rv [2] was 3.4 µM. Moreover, in the series on M. abscessus Bamboo, the “inhibitory activity in words” value is “concentration-dependent inhibitory activity”.
Turning to `Nc1nc(-c2cc(C(=O)Nc3ccccc3)no2)cs1` [Compound 42i], the “metabolic stability in HLM in words” value in series [6] is given as “did not show any significant biotransformation”.
Consider `O=C(Nc1ccccc1)c1cc(-c2csc(Nc3cc(Cl)c(Cl)c(Cl)c3)n2)on1` [Compound 42j], for which the “metabolic stability in HLM in words” value in [6] was “did not show any significant biotransformation”.
Consider `O=C(Nc1ccccc1)c1cc(-c2csc(Nc3ccc(Cl)cc3)n2)on1` [Compound 42l], for which, in the series on M. tuberculosis H37Rv [2], the MIC90 amounted to 3.2 µM.
For the compound `O=C(Nc1ccccc1)c1cc(-c2csc(Nc3cccc(O)c3)n2)on1` [Compound 42m], the MIC90 in the series on M. tuberculosis H37Rv [2] is 13.2 µM.
Take `O=C(Nc1ccccc1)c1cc(-c2csc(Nc3ccc(CO)cc3)n2)on1` [Compound 42n, 5-(2-((4-(hydroxymethyl)phenyl)amino)thiazol-4-yl)-N-phenylisoxazole-3-carboxamide]: the “antitubercular whole cell activity in words” value in the series with M. tuberculosis H37Rv [2] is “no whole cell activity”.
As to `Cc1ccc(Nc2nc(-c3cc(C(=O)Nc4ccccn4)no3)cs2)cc1O` [Compound 43e], in the series with M. tuberculosis H37Rv [2], the “antitubercular whole cell activity in words” value is “retained a certain activity” and the MIC90 was determined as 12.6 µM.
For the compound `O=C(Nc1ccccn1)c1cc(-c2csc(Nc3ccccc3)n2)on1` [Compound 43g], the “inhibitory activity in words” value in the series with M. abscessus Bamboo is “concentration-dependent inhibitory activity”.
Consider `Nc1nc(-c2cc(C(=O)Nc3ccccn3)no2)cs1` [Compound 43i], for which, in series [6], the “metabolic stability in HLM in words” value is recorded as “did not show any significant biotransformation”.
Still for that read-out and setting: the entry for `O=C(Nc1ccccn1)c1cc(-c2csc(Nc3cc(Cl)c(Cl)c(Cl)c3)n2)on1` [Compound 43j] is “did not show any significant biotransformation”.
Consider `O=C(Nc1ccccn1)c1cc(-c2csc(Nc3ccc(CO)cc3)n2)on1` [Compound 43n, 5-(2-((4-(hydroxymethyl)phenyl)amino)thiazol-4-yl)-N-(pyridin-2-yl)isoxazole-3-carboxamide], for which the “antitubercular whole cell activity in words” value with M. tuberculosis H37Rv [2] is reported as “no whole cell activity”.
With `Cc1ccc(Nc2nc(-c3cc(C(=O)Nc4ccccc4)no3)co2)cc1` [Compound 47], in the series with M. tuberculosis H37Rv [2], the MIC90 came out at 2.8 µM.
With `Cc1ccc(Nc2nc(-c3cc(C(=O)Nc4ccccn4)no3)co2)cc1` [Compound 48], in the series on M. tuberculosis H37Rv [5] (value in brackets), the “MIC90 MtbH37Rv” value was 6.9 µM.
Turning to `CCOC(=O)c1cc(-c2cccc(Nc3ccc(C)cc3)n2)on1` [Compound 53, Ethyl 5-(6-(p-tolylamino)pyridin-2-yl)isoxazole-3-carboxylate], the MIC90 in the series with M. tuberculosis H37Rv [2] turned out to be 3.8 µM.
Take `O=C(Nc1ccccc1)c1cc(C(=O)Nc2nc3ccccc3s2)on1` [Compound 58a]: the MIC90 with M. tuberculosis H37Rv [2] was more than 40 µg/mL.
In the case of `Cc1ccc2nc(NC(=O)c3cc(C(=O)Nc4ccccn4)no3)sc2c1` [Compound 58b], the MIC90 with M. tuberculosis H37Rv [2] is more than 40 µg/mL.
As to `O=C(Nc1ccccn1)c1cc(C(=O)Nc2nc3ccccc3s2)on1` [Compound 59a], the MIC90 in the series with M. tuberculosis H37Rv [2] is more than 40 µg/mL.
Take `Cc1ccc2nc(NC(=O)c3cc(C(=O)Nc4ccccc4)no3)sc2c1` [Compound 59b]: the MIC90 in the series on M. tuberculosis H37Rv [2] was more than 40 µg/mL.
With `Cc1cccc(NC(=O)c2cc(C(=O)Nc3nc4ccccc4s3)on2)c1` [Compound 60a], in the series on M. tuberculosis H37Rv [2], the MIC90 was more than 40 µg/mL.
`Cc1cccc(NC(=O)c2cc(C(=O)Nc3nc4ccc(C)cc4s3)on2)c1` [Compound 60b]: the MIC90 in the series with M. tuberculosis H37Rv [2] is more than 40 µg/mL.
In the case of `COc1ccc2sc(NC(=O)c3cc(C(=O)Nc4cccc(C)c4)no3)nc2c1` [Compound 60c], the MIC90 with M. tuberculosis H37Rv [2] was more than 40 µg/mL.
On to `O=C(Nc1ccc(O)cc1)c1cc(C(=O)Nc2nc3ccccc3s2)on1` [Compound 61a], for which the MIC90 in the series on M. tuberculosis H37Rv [2] was more than 40 µg/mL.
Regarding `Cc1ccc2nc(NC(=O)c3cc(C(=O)Nc4ccc(O)cc4)no3)sc2c1` [Compound 61b], the MIC90 in the series with M. tuberculosis H37Rv [2] was more than 40 µg/mL.
On the same count and under the same terms, as for `O=C(Nc1cccc(F)c1)c1cc(C(=O)Nc2nc3ccccc3s2)on1` [Compound 62a], the figure is more than 40 µg/mL.
As to `O=C(Nc1cccc(O)c1)c1cc(C(=O)Nc2nc3ccccc3s2)on1` [Compound 63a], the MIC90 in the series with M. tuberculosis H37Rv [2] was more than 40 µg/mL.
In the case of `NNC(=O)c1ccncc1` [INH, Isoniazide], the “MIC90 MtbH37Rv” value against M. tuberculosis H37Rv [2] (REMA method, M. tuberculosis H37Rv) amounted to 0.025 µg/mL (≈ 0.182 µM). The MIC90 against Ty1 (Rv3405c, c190t) was 0.025 µg/mL (≈ 0.182 µM); in the series with H37Rv, 0.025 µg/mL (≈ 0.182 µM); against 81.10 (ethA, Δ1109–37) it was 0.025 µg/mL (≈ 0.182 µM).
